Our source for the Ki and pKi values is publication PMC11516055, “From Static to Dynamic Structures: Improving Binding Affinity Prediction with Graph‐Based Deep Learning” (Advanced Science, 2024).

The target in one assay is T1, HSP90 (9-236) (Homo sapiens, UniProt P07900).
T1 construct: HSP90 (9‐236) was cross‐linked on the surface of the Series S Sensor Chip CM5
Kind of assay: Surface plasmon resonance (SPR) measurement of Ki on immobilised HSP90 (9-236). As to conditions: Biacore S200, HSP90 (9-236) on CM5 chip, 1 × PBS with 5% DMSO. In kind it is binding. The text has this: Next, we performed docking on HSP90 against the ChemBridge DIVERSet‐EXP library, which contains 50,000 small molecules that cover a diverse pharmacophore space. The docked conformers were obtained using Autodock Vina, a widely used open‐source docking software.^[ [16], [60] ^] The reference protein‐ligand structure (PDB ID: 2xdl) was chosen from the test set, CASF‐2016, to identify the binding pocket. Then, the docked poses were used to score and rank the molecules based on the Dynaformer predictions. After that, the top‐ranked compounds were filtered and visually inspected for prioritization, following the approach and criteria described in the literature^[ [7], [61] ^] (see Experimental Section for details). To ensure the fairness of prioritization, we created a pool consisting of molecules among the top 10% from both Dynaformer and the original scoring function in Autodock Vina. From the pool, 20 molecules were chosen without knowing their rankings. Finally, surface plasmon resonance (SPR) experiments were conducted for each of the 20 molecules to measure the inhibition constant K i . In total, 12 of the 20 molecules had measurable binding affinities.
Finally, the binding affinities of the above 20 molecules were experimentally validated. Surface plasmon resonance (SPR) measurements were performed by the Biacore S200 instrument (GE Healthcare Life Sciences). HSP90 (9‐236) was cross‐linked on the surface of the Series S Sensor Chip CM5 (GE Healthcare) at pH 4.0 by an amine coupling kit with 1‐ethyl‐(3‐dimethylaminopropyl)‐carbodiimide hydrochloride (EDC) and NHS. Experiments were performed in a running buffer (1 × PBS with 5% DMSO). Each compound was serially diluted by a factor of two in the running buffer. The compound solution flowed through the surface of the chip at a flow rate of […]. Sensorgrams were analyzed and generated by Biacore Evaluation Software.
Background: Surface plasmon resonance follows binding to a sensor surface in real time, without labels.

Another assay has as its target T315I Abl kinase domain. On the set-up: method as in PMID 17804707. As to conditions: experimental value, PDB ID 2v7a, CASF-2016; cited from earlier work.
The target of assay [1] is aspartyl protease β-secretase (BACE). On the set-up: method as in PMID 22468999. Particulars: experimental value, PDB ID 3udh; cited from earlier work.
The next assay addresses HSP90. Also noted: method as in CASF-2016. As to conditions: HSP90 ligand in CASF-2016, reference structure for docking; ref CASF-2016; cited from earlier work.

By Ki is commonly meant a dissociation constant, usually derived from enzyme kinetics or from competition with a known ligand. A lower Ki goes with tighter binding. By pKi is commonly meant −log10 of the Ki, conventionally taken in molar units.

Consider `Cc1ccc(Cn2c(C)c(C)n3c4c(=O)[nH]c(=O)n(C)c4nc23)cc1` [compound 4], for which, on HSP90 (9-236), the affinity corresponds to a Ki of 2.5 µM.

On to `O=c1[nH]c(=O)c2c(-c3cccc4ccccc34)ccnc2[nH]1` [compound 8], for which, at HSP90 (9-236), affinity was put at a Ki of 10 µM. In the case of `Nc1c(C(=O)c2ccccc2)sc2nc3c(cc12)CCCC3` [compound 5], the Ki at HSP90 (9-236) was 3.97 µM. At HSP90 (9-236), `Cc1nn(-c2nc3ccccc3[nH]2)c2c1C(=O)CC(c1ccccc1O)C2` (stereo not shown) [compound 10] yielded a Ki of 70 µM. On to `CO[C@@H](C(=O)N1Cc2[nH]nc(NC(=O)c3ccc(N4CCN(C)CC4)cc3)c2C1)c1ccccc1` [2v7a], for which the negative logarithm of the Ki (pKi) on T315I Abl kinase domain is recorded as 8.3. For the compound `O=C1Nc2ccccc2[C@]12CCNC2` [3udh], in assay [1], the pKi is on record as 2.8. The compound `CCCC(=O)N1CCN(c2ccc(NC(=O)c3cccc(C)c3OC)cc2)CC1` [compound 11] came in with an inhibition constant Ki at HSP90 (9-236) of 98 µM. On HSP90 (9-236), `O=C(Nc1ccccc1)C1CC(=O)N(c2ccc3c4c(cccc24)CC3)C1` (stereo not shown) [compound 6] came in with a Ki of 4.5 µM. The same measure, in the same setting: as for `CC1=NNc2nc3c(c(=O)n(Cc4c(F)cccc4Cl)c(=O)n3C)n2C1` [compound 1], the figure is 0.207 µM; as for `COc1cccc(C(=O)Nc2ccc(Oc3ccccc3)cc2)c1OC` [compound 2], 0.517 µM; as for `Cc1ccc(-c2nc3nc4ccccc4nc3n2CC2CCCO2)cc1` (stereo not shown) [compound 9], 68.6 µM. In turn, `Cc1cccc(C(=O)Nc2ccc3c(c2)OCCO3)c1[N+](=O)[O-]` [compound 7] displayed a Ki at HSP90 (9-236) of 6.9 µM. With `CCN(CC)C(=O)c1ccc(O)c(OC)c1` [2XDL], at HSP90, the pKi is 3.10.
